Laboratory results reported in patent US6040320A, “2-substituted imidazoles useful in the treatment of inflammatory diseases” (Ortho-McNeil Pharmaceutical, Inc., priority 1998, dated 2000).
Where two headings read alike, the source gives them in different places.

Key:
TNF-α [1] = assay: in vitro whole cell assay: LPS-stimulated TNF-α production in PBMC (ELISA); format: cell-based, human; conditions: for IC50: read-out: TNF-α IC50
Description: In addition to the enzyme assay, the compounds of the invention were tested in an in vitro whole cell assay using peripheral blood mononuclear cells ("PBMC") which were obtained from human blood as follows. Freshly obtained venous blood was anticoagulated with heparin, diluted with an equal volume of phosphate buffered saline ("PBS") and placed in a sterile tube or other container. Aliquots (30 mL) of this mixture were transferred to centrifuge tubes which were underlaid with Ficoll-Hypaque (15 mL). The prepared tubes were centrifuged at 400×g without braking for 30 min at room temperature. Approximately 1/2 to 2/3 of the platelet layer above the mononuclear cell band was removed with a pipet. The majority of the mononuclear cell layer was carefully removed using a pipet and these PBMCs were diluted with PBS and spun at 600×g for 15 min. The resulting PBMCs were washed with another portion of PBS and spun at 400×g for 10 min at room temperature. The recovered pellets were diluted in low endotoxin RPMI/1% FCS culture medium and gave a cell concentration of 0.5-2.0 X 10^6 PMBC/mL. A small volume of the suspension was removed for counting on a hemocytometer and the remaining preparation was centrifuged at 200×g for 15 min at room temperature. The recovered pelleted PMBC were resuspended in RPMI/1% FCS to a concentration of 1.67×10^6 /mL.
To run the assay, the PBMC suspension (180 μL) was transferred to duplicate wells of a 96-well flat-bottom microtiter plate and incubated for 1 h at 37° C. A solution of test compound (10 μL: prepared at 20×the desired final concentration) was added to each well and the plate was incubated for 1 h at 37° C. A solution (10 μL) of LPS in RPMI/1% FCS (200 ng/mL) was added and the wells were incubated overnight at 37° C. The supernate (100 μL) was removed from each well and diluted with RPMI/1% FCS (400 μL). The samples were analyzed for TNF-α using a commercial ELISA kit (Genzyme). […] Since imidazoles which are unsubstituted at the 1-position are subject to tautomerization, the substituents listed for R1 and R2 are interchangeable when R3 is hydrogen.

p38 = biological target: T1, p38 (Homo sapiens, UniProt Q16539); assay: in vitro inhibition of p38 (CPSB): purified recombinant 6xHis-p38, myelin basic protein substrate, 33P-ATP; format: biochemical
T1 construct: 6xHis (N); made in house; host or cells: E. coli
T1 sequence (Q16539 whole entry): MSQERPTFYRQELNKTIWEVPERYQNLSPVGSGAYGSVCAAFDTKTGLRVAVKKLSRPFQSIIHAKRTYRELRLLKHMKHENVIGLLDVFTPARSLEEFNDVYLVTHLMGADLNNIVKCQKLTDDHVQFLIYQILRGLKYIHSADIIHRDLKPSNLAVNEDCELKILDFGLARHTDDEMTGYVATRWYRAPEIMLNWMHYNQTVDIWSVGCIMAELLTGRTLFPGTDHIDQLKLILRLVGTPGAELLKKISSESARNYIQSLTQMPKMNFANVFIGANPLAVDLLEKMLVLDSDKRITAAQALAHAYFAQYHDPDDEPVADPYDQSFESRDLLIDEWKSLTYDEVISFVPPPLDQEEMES
Description: Compounds of the invention were measured for their ability to inhibit the activity of p38 by the following in vitro assay.
A solution (38 μL) of purified recombinant p38 (where the amount of enzyme was determined empirically considering the linear range of the assay and the acceptable signal to noise ratio; 6xHis-p38 expressed in E.coli), myelin basic protein substrate (also determined empirically), a buffer of pH 7.5 (Hepes:25 mM, MgCl2 :10 mM, MnCl2 :10 mM) were added to 92 wells of a 96-well round bottom polypropylene plate. The remaining wells were used for control ("CTRL") and background ("BKG"). The CTRL was prepared with the enzyme, substrate buffer and 2% DMSO, and the BKG was prepared with substrate buffer and 2% DMSO. A solution (12 μL) of the test compound in DMSO (compounds were diluted to 125 μM in 10% DMSO/H2 O and assayed at 25 μM where the final DMSO concentration was 2%) was added to the testing wells. The ATP/^33 P-ATP solution (10 μL: containing 50 μM unlabeled ATP and 1 μCi ^33 P-ATP) was added to all wells and the completed plates were mixed and incubated at 30° C. for 30 min. Icecold 50% TCA/10 mM sodium phosphate (60 μL) were added to each well and the plates were kept on ice for 15 min. The contents of each well were transferred to the wells of a 96-well filterplate (Millipore, MultiScreen-DP) and the filterplate was placed on a vacuum manifold, fitted with a waste collection tray. The wells were washed five times with 10% TCA/10 mM sodium phosphate (200 μL) under vacuum. MicroScint-20 scintillant was added, the plates were sealed using Topseal-S sheets and counted in a Packard TopCount scintillation counter using a ^33 P liquid program with color quench correction, where the output is in color quench-corrected cpm. The % inhibition of the test compounds was calculated by the following formula: % inhibition=[1-(sample-BKG)/(CTRL-BKG)]×100.
Although compounds were initially tested at 25 μM, if warranted the compounds were tested at 4-fold increments above and below that concentration. In addition, lC50 s were calculated for some compounds using the Deltagraph 4-parameter curve fitting program.

IL-1β = assay: in vitro IL-1β production by LPS-stimulated plastic-adherent cells from PBMC (ELISA); format: cell-based; conditions: adherent cells from human PBMC, read-out: inhibited the production of IL-1B, IC50
Description: Aliquots (30 mL) of this mixture were transferred to centrifuge tubes which were underlaid with Ficoll-Hypaque (15 mL). The prepared tubes were centrifuged at 400×g without braking for 30 min at room temperature. […] A small volume of the suspension was removed for counting on a hemocytometer and the remaining preparation was centrifuged at 200×g for 15 min at room temperature.

TNF-α [2] = assay: in vivo rodent assay: inhibition of LPS induced TNF-α production, mouse; conditions: oral, 25 mg/kg, LPS 1 mg/kg i.p.
Description: Mice (BALB / cJ females, Jackson Laboratories) or rats (Lewis males, Charles River) were fasted for 30 min prior to oral dosing with 5-10 mL/kg of test compound at 5-50 mg/kg. Thirty minutes after dosing, the animals were injected intraperitoneally with LPS at 1 mg/kg and returned to their cages for I h. Animals were anesthetized by CO2, exsanguinated by cardiac puncture and whole blood collected (0.1-0.7 mL). The blood was allowed to clot and serum was transferred to a centrifuge tube. This sample was centrifuged, serum was collected, aliquoted and frozen at -80° C. Samples were tested by commercial ELISAs for TNF-α (Endogen for mouse TNF-α and Biosource for rat TNF-α). Compounds 15 and 56 inhibited TNF-α production in the mouse at 88% and 37% respectively at a dose of 25 mg/kg.

SMILES | IC50 (TNF-α [1]; human PBMC, LPS) [nM] | IC50 (p38) [nM] | other results
O=C(NCCCSc1nc(-c2ccc(F)cc2)c(-c2ccncc2)[nH]1)c1ccco1 [Compound 29] | 112 |  | CPSB % inhibition (p38; @ 20 μm): 91%
CC(C)Sc1nc(-c2ccncc2)c(-c2ccc(F)cc2)[nH]1 [Compound 22] |  | 470 | 
O=C1c2ccccc2C(=O)N1CCSc1nc(-c2ccc(F)cc2)c(-c2ccncc2)[nH]1 [Compound 25] | 500 |  | CPSB % inhibition (p38; @ 5 μm): 52%
O=C(CCCO)c1nc(-c2ccncc2)c(-c2ccc(F)cc2)[nH]1 [Compound 10, 4-Hydroxy-1-[5-(4-fluorophenyl)-4-(4-pyridyl)-imidazol-2-yl]butanone] | 400 |  | IC50 (IL-1β): 800 nM
CCSc1nc(-c2ccncc2)c(-c2ccc(F)cc2)[nH]1 [Compound 39] |  | 400 | 
CC(=O)OCCCCc1nc(-c2ccncc2)c(-c2ccc(F)cc2)n1COCC[Si](C)(C)C [Compound 45] |  |  | TNF-α inhibition in words (TNF-α [1]; human PBMC, LPS): inactive; CPSB % inhibition (p38; @ 20 μm): 8%
CC(=O)OCCCCc1nc(-c2ccncc2)c(-c2ccc(F)cc2)n1Cc1ccccc1 [Compound 42] |  |  | CPSB % inhibition (p38; @ 5 μm): 2%
CCOC(CCSc1nc(-c2ccncc2)c(-c2ccc(F)cc2)[nH]1)OCC [Compound 20] |  | 2000 | 
Fc1ccc(-c2[nH]c(S)nc2-c2ccncc2)cc1 [Compound 21] |  | 1900 | 
O=C(NCCCSc1nc(-c2ccncc2)c(-c2ccc(F)cc2)[nH]1)c1cccc2ccccc12 [Compound 28] |  | 1250 | IC50 (TNF-α [1]; Homo sapiens, PBMC): 97 nM; IC50 (IL-1β): 86 nM
CCCS(=O)(=O)Cc1nc(-c2ccncc2)c(-c2ccc(F)cc2)[nH]1 [Compound 59] | 55 |  | IC50 (IL-1β): 350 nM
O=C(NCCCSc1nc(-c2ccncc2)c(-c2ccc(F)cc2)[nH]1)c1cccs1 [Compound 4, 5(4)-(4-Fluorophenyl)-2-(3-(thien-2-ylamido)prop-1-yl)thio-4(5)-(4-pyridyl)-imidazole] |  | 1250 | IC50 (TNF-α [1]; Homo sapiens, PBMC): 10 nM
O=C1c2ccccc2C(=O)N1CCCSc1nc(-c2ccc(F)cc2)c(-c2ccncc2)[nH]1 [Compound 2, 5(4)-(4-Fluorophenyl)-2-(3-phthalimidoprop-1-yl)thio-4(5)-(4-pyridyl)-imidazole] |  | 790 to 1800 | IC50 (TNF-α [1]; Homo sapiens, PBMC): 1000 nM
C[Si](C)(C)CCOCn1c(CO)nc(-c2ccncc2)c1-c1ccc(F)cc1 [Compound 36] |  |  | CPSB % inhibition (p38; @ 5 μm): 6%
NCCCSc1nc(-c2ccc(F)cc2)c(-c2ccncc2)[nH]1 [Compound 3, 2-(3-Aminoprop-1-yl)thio-5(4)-(4-fluorophenyl)4(5)-(4-pyridyl)-imidazole] |  |  | CPSB % inhibition (p38; @ 20 μm): 26%
CCCCSc1nc(-c2ccncc2)c(-c2ccc(F)cc2)[nH]1 [Compound 40] |  | 280 to 700 | 
O=S(=O)(NCCCSc1nc(-c2ccc(F)cc2)c(-c2ccncc2)[nH]1)c1ccccc1 [Compound 30] | 100 |  | CPSB % inhibition (p38; @ 20 μm): 92%
O=C1c2ccccc2C(=O)N1CCCCc1nc(-c2ccncc2)c(-c2ccc(F)cc2)n1Cc1ccccc1 [Compound 43] |  |  | CPSB % inhibition (p38; @ 5 μm): 8%
O=C1c2ccccc2C(=O)N1CCCCSc1nc(-c2ccncc2)c(-c2ccc(F)cc2)[nH]1 [Compound 27] |  | 2460 | IC50 (TNF-α [1]; Homo sapiens, PBMC): 2000 nM
O=S(=O)(CCO)Cc1nc(-c2ccncc2)c(-c2ccc(F)cc2)[nH]1 [Compound 15, 5-(4-Fluorophenyl)-2-[4-hydroxy-2-sulfonyl-but-1-yl]-4-(4-pyridyl)-imidazole] | 40 |  | inhibited TNF-α production in the mouse (TNF-α [2]): 88%
N#CCSc1nc(-c2ccncc2)c(-c2ccc(F)cc2)[nH]1 [Compound 38] |  | 400 | 
C=CCSc1nc(-c2ccncc2)c(-c2ccc(F)cc2)[nH]1 [Compound 37] |  | 750 | 
O=Cc1nc(-c2ccncc2)c(-c2ccc(F)cc2)[nH]1 [Compound 8, 5(4)-(4-Fluorophenyl)-4(5)-(4-pyridyl)-2-imidazole carboxaldehyde] |  | 800 | IC50 (TNF-α [1]; Homo sapiens, PBMC): 140 nM
CCCSc1nc(-c2ccncc2)c(-c2ccc(F)cc2)[nH]1 [Compound 1, 5(4)-(4-Fluorophenyl)2-(1-propyl)thio-4(5)-(4-pyridyl)-5(4)-imidazole] |  | 680 | 

SMILES | IC50 (TNF-α [1]; human PBMC, LPS) [nM] | IC50 (p38) [nM] | other results
Fc1ccc(-c2c(-c3ccncc3)ncn2CCCc2cccnc2)cc1 [Compound 81] | 500 |  | 
COCc1nc(-c2ccncc2)c(-c2ccc(F)cc2)n1CCCN1C(=O)c2ccccc2C1=O [Compound 60] | 400 |  | 
O=C(NCCCSc1nc(-c2ccncc2)c(-c2ccc(F)cc2)[nH]1)c1ccccc1 [Compound 26] |  | 2180 | IC50 (TNF-α [1]; Homo sapiens, PBMC): 100 nM
O=C1c2ccccc2C(=O)N1CCCn1cnc(-c2ccncc2)c1-c1ccc(F)cc1 [Compound 70] | 500 |  | 
Fc1ccc(-c2nc(I)n(CCCc3ccccc3)c2-c2ccncc2)cc1 [Compound 75] | 3 |  | 
CCCCc1cc(-c2c(-c3ccc(F)cc3)nc(CO)n2CCCc2ccccc2)ccn1 [Compound 78] | 450 |  | 
Fc1ccc(-c2[nH]c(SCC3CC3)nc2-c2ccncc2)cc1 [Compound 23] |  | 1000 to 1800 | 
CNC(=O)Sc1nc(-c2ccc(F)cc2)c(-c2ccncc2)[nH]1 [Compound 5, 5(4)-(4-Fluorophenyl)-2-(N-methylaminocarbonyl)thio-4(5)-(4-pyridyl)-imidazole] |  |  | CPSB % inhibition (p38; @ 20 μm): 81%
CCc1nc(-c2ccc(F)cc2)c(-c2ccncc2)n1CCCN1C(=O)c2ccccc2C1=O [Compound 64] | 80 |  | 
CCc1nc(-c2ccncc2)c(-c2ccc(F)cc2)n1CCCN1C(=O)c2ccccc2C1=O [Compound 65] | 20 |  | 
CC(=O)OCCCCc1nc(-c2ccc(F)cc2)c(-c2ccncc2)n1Cc1ccccc1 [Compound 17, 4-[1-Benzyl-4-(4-fluorophenyl)-5-(4-pyridyl)imidazol-2-yl]butyl acetate] |  | 2630 | IC50 (TNF-α [1]; Homo sapiens, PBMC): 500 nM
CCC(=O)Cn1cnc(-c2ccc(F)cc2)c1-c1ccncc1 [Compound 80] | 200 |  | 
O=C1c2ccccc2C(=O)N1CCCCc1nc(-c2ccncc2)c(-c2ccc(F)cc2)[nH]1 [Compound 47] | 283 |  | 
C[Si](C)(C)CCOCn1c(CCCCO)nc(-c2ccncc2)c1-c1ccc(F)cc1 [Compound 46] |  |  | TNF-α inhibition in words (TNF-α [1]; human PBMC, LPS): inactive; CPSB % inhibition (p38; @ 20 μm): 9%
OCCCCc1nc(-c2ccncc2)c(-c2ccc(F)cc2)[nH]1 [Compound 16b, 4-[5(4)-(4-Fluorophenyl)4(5)-(4-pyridyl)imidazol-2-yl]butanol] |  | 1590 | IC50 (TNF-α [1]; Homo sapiens, PBMC): 10 nM
Fc1ccc(-c2nc(Br)n(CCCc3ccccc3)c2-c2ccncc2)cc1 [Compound 74] | 200 |  | 
OCCSCc1nc(-c2ccncc2)c(-c2ccc(F)cc2)[nH]1 [Compound 13, 5-(4-Fluorophenyl)-2-[4-hydroxy-2-thiabut-1-yl]4-(4-pyridyl)-imidazole] | 80 |  | 
O=C1c2ccccc2C(=O)N1CCCCc1nc(-c2ccc(F)cc2)c(-c2ccncc2)n1Cc1ccccc1 [Compound 48] | 1750 |  | 
CC(=O)OCCCCc1nc(-c2ccncc2)c(-c2ccc(F)cc2)n1C(=O)OCc1ccccc1 [Compound 18] |  |  | CPSB % inhibition (p38; @ 5 μm): 10%
O=C1c2ccccc2C(=O)N1CCCn1cnc(-c2ccc(F)cc2)c1-c1ccncc1 [Compound 71] | 39 |  | 
O=C1c2ccccc2C(=O)N1CCCn1c(CO)nc(-c2ccc(F)cc2)c1-c1ccncc1 [Compound 56] | 30 |  | inhibited TNF-α production in the mouse (TNF-α [2]): 37%
COCc1nc(-c2ccc(F)cc2)c(-c2ccncc2)n1CCCN1C(=O)c2ccccc2C1=O [Compound 58] | 75 |  | 
CC(=O)OCCCCc1nc(-c2ccncc2)c(-c2ccc(F)cc2)[nH]1 [Compound 16a, 4-[5(4)-(4-Fluorophenyl)-(5)-(4-pyridyl)imidazol-2-yl]butayl acetate] |  | 1420 | 
O=C1c2ccccc2C(=O)N1CCCCn1cnc(-c2ccncc2)c1-c1ccc(F)cc1 [Compound 72] | 300 |  | 
